Results as given in patent publication US9006455B2 (Bristol-Myers Squibb Company, priority 2009, dated 2015).
Like-named read-outs stand apart in the source and are kept apart here.

System: HCV 1b genotype
Assay: HCV Replicon assay (HCV 1b genotype)
Assay type: cell-based
Details: Hepatitis C virus, HCV 1b genotype replicon
Experimental: An HCV Replicon assay was utilized in the present disclosure, and was prepared, conducted and validated as described in commonly owned PCT/US2006/022197 and in O'Boyle et al., Antimicrob. Agents Chemother., 49(4):1346-1353 (April 2005). Assay methods incorporating luciferase reporters have also been used as described (Apath.com).
HCV-neo replicon cells and replicon cells containing resistance substitutions in the NS5A region were used to test the currently described family of compounds. The compounds were determined to have differing degrees of reduced inhibitory activity on cells containing mutations vs. the corresponding inhibitory potency against wild-type cells. Thus, the compounds of the present disclosure can be effective in inhibiting the function of the HCV NS5A protein and are understood to be as effective in combinations as previously described in application PCT/US2006/022197 and commonly owned WO 04/014852. It should be understood that the compounds of the present disclosure can inhibit multiple genotypes of HCV. […] In one embodiment, compounds of the present disclosure are inhibitory versus 1a, 1b, 2a, 2b, 3a, 4a, and 5a genotypes.

[1] = read-out: Range (EC50 values against HCV 1b)

SMILES | EC50 [1] | EC50 (read-out: EC50)
COC(=O)N[C@@H](C)C(=O)N1CCC[C@H]1c1nc2ccc(-c3ccc4cc(-c5ccc6nc([C@@H]7CCCN7C(=O)[C@H](C)NC(=O)OC)[nH]c6c5)ccc4c3)cc2[nH]1 [Example 5, Methyl((1S)-2-((2S)-2-(5-(6-(2-((2S)-1-(N-(methoxycarbonyl)-L-alanyl)-2-pyrrolidinyl)-1H-benzimidazol-5-yl)-2-naphthyl)-1H-benzimidazol-2-yl)-1-pyrrolidinyl)-1-methyl-2-oxoethyl)carbamate] | 0.0101 to 1 nM | 
COC(=O)N[C@H](C(=O)N1CCC[C@H]1c1nc2ccc(-c3ccc4cc(-c5ccc6nc([C@@H]7CCCN7C(=O)[C@@H](NC(=O)OC)C7CC7)[nH]c6c5)ccc4c3)cc2[nH]1)C1CC1 [Example 11, Dimethyl(2,6-naphthalenediylbis(1H-benzimidazole-5,2-diyl(2S)-2,1-pyrrolidinediyl((1S)-1-cyclopropyl-2-oxo-2,1-ethanediyl)))biscarbamate] | 0.0101 to 1 nM | 0.0182 nM
COC(=O)N[C@H](C(=O)N1CCCC[C@H]1c1nc(-c2ccc(-c3ccc4cc(-c5c[nH]c([C@@H]6CCCCN6C(=O)[C@@H](NC(=O)OC)C(C)C)n5)ccc4c3)cc2)c[nH]1)C(C)C [Example 118, Methyl((1S)-1-(((2S)-2-(4-(4-(6-(2-((2S)-1-((2S)-2-((methoxycarbonyl)amino)-3-methylbutanoyl)-2-piperidinyl)-1H-imidazol-4-yl)-2-naphthyl)phenyl)-1H-imidazol-2-yl)-1-piperidinyl)carbonyl)-2-methylpropyl)carbamate] | 0.0101 to 1 nM | 0.0374 nM
COC(=O)N[C@H](C(=O)N1CCC[C@H]1c1nc2nc(-c3ccc4cc(-c5cnc6[nH]c([C@@H]7CCCN7C(=O)[C@@H](NC(=O)OC)C(C)C)nc6n5)ccc4c3)cnc2[nH]1)C(C)C [Example 24, Methyl((1S)-1-(((2S)-2-(5-(6-(2-((2S)-1-((2S)-2-((methoxycarbonyl)amino)-3-methylbutanoyl)-2-pyrrolidinyl)-1H-imidazo[4,5-b]pyrazin-5-yl)-2-naphthyl)-1H-imidazo[4,5-b]pyrazin-2-yl)-1-pyrrolidinyl)carbonyl)-2-methylpropyl)carbamate] | 0.0101 to 1 nM | 
COC(=O)N[C@H](C(=O)N1CCC[C@H]1c1ncc(-c2ccc3cc(-c4ccc5nc([C@@H]6CCCN6C(=O)[C@@H](NC(=O)OC)C6CCOCC6)[nH]c5c4)ccc3c2)[nH]1)C1CCOCC1 [Example 28, Methyl((1S)-2-((2S)-2-(4-(6-(2-((2S)-1-((2S)-2-((methoxycarbonyl)amino)-2-(tetrahydro-2H-pyran-4-yl)acetyl)-2-pyrrolidinyl)-1H-benzimidazol-5-yl)-2-naphthyl)-1H-imidazol-2-yl)-1-pyrrolidinyl)-2-oxo-1-(tetrahydro-2H-pyran-4-yl)ethyl)carbamate] | 0.0101 to 1 nM | 
O=C([C@@H](c1ccccc1)N1CCCCC1)N1CCC[C@H]1c1nc2ccc(-c3ccc4cc(-c5ccc6nc([C@@H]7CCCN7C(=O)[C@@H](c7ccccc7)N7CCCCC7)[nH]c6c5)ccc4c3)cc2[nH]1 [Example 7, 5,5′-(2,6-Naphthalenediyl)bis(2-((2S)-1-((2R)-2-phenyl-2-(1-piperidinyl)acetyl)-2-pyrrolidinyl)-1H-benzimidazole)] | 0.0101 to 1 nM | 
CC(C)(C)OC(=O)N1CCC[C@H]1c1nc(-c2ccc3cc(-c4c[nH]c([C@@H]5CCCN5C(=O)OC(C)(C)C)n4)ccc3c2)c[nH]1 [Intermediate 52, (2S,2′S)-tert-Butyl 2,2′-(4,4′-(naphthalene-2,6-diyl)bis(1H-imidazole-4,2-diyl))dipyrrolidine-1-carboxylate] | 1.01 to 1000 nM | 
COC(=O)N[C@H](C(=O)N1CCC[C@H]1c1ncc(-c2ccc(-c3ccc4cc(-c5ccc6nc([C@@H]7CCCN7C(=O)[C@@H](NC(=O)OC)C(C)C)[nH]c6c5)ccc4c3)cc2)[nH]1)C(C)C [Example 3, Methyl((1S)-1-(((2S)-2-(4-(4-(6-(2-(1-((2S)-2-((methoxycarbonyl)amino)-3-methylbutanoyl)-2-pyrrolidinyl)-1H-benzimidazol-5-yl)-2-naphthyl)phenyl)-1H-imidazol-2-yl)-1-pyrrolidinyl)carbonyl)-2-methylpropyl)carbamate] | 0.0101 to 1 nM | 
COC(=O)N[C@H](C(=O)N1CCC[C@@H]1c1nc2nc(-c3ccc4cc(-c5cnc6[nH]c([C@@H]7CCCN7C(=O)[C@@H](NC(=O)OC)C(C)C)nc6n5)ccc4c3)cnc2[nH]1)C(C)C [Example 25A, Methyl((1S)-1-(((2S)-2-(5-(6-(2-((2R)-1-((2S)-2-((methoxycarbonyl)amino)-3-methylbutanoyl)-2-pyrrolidinyl)-1H-imidazo[4,5-b]pyrazin-5-yl)-2-naphthyl)-1H-imidazo[4,5-b]pyrazin-2-yl)-1-pyrrolidinyl)carbonyl)-2-methylpropyl)carbamate] | 1.01 to 1000 nM | 
COC(=O)N[C@H](C(=O)N1[C@@H]2C[C@@H]2C[C@H]1c1nc2ccc(-c3ccc4nc(-c5ccc6nc([C@@H]7C[C@H]8C[C@H]8N7C(=O)[C@@H](NC(=O)OC)C7CCOCC7)[nH]c6c5)cnc4c3)cc2[nH]1)C1CCOCC1 [Example 38, Dimethyl(2,6-quinoxalinediylbis(1H-benzimidazole-5,2-diyl(1R,3S,5R)-2-azabicyclo[3.1.0]hexane-3,2-diyl((1S)-2-oxo-1-(tetrahydro-2H-pyran-4-yl)-2,1-ethanediyl)))biscarbamate] | 0.0101 to 1 nM | 0.0421 nM
COC(=O)N[C@H](C(=O)N1[C@@H](C)CC[C@H]1c1ncc(-c2ccc(-c3ccc4cc(-c5cnc([C@@H]6CC[C@H](C)N6C(=O)[C@@H](NC(=O)OC)C6CCC(F)(F)CC6)[nH]5)ccc4c3)cc2)[nH]1)C1CCC(F)(F)CC1 [Example 71, Methyl((1S)-1-(4,4-difluorocyclohexyl)-2-((2S,5S)-2-(4-(4-(6-(2-((2S,5S)-1-((2S)-2-(4,4-difluorocyclohexyl)-2-((methoxycarbonyl)amino)acetyl)-5-methyl-2-pyrrolidinyl)-1H-imidazol-4-yl)-2-naphthyl)phenyl)-1H-imidazol-2-yl)-5-methyl-1-pyrrolidinyl)-2-oxoethyl)carbamate] |  | 0.00211 nM
COC(=O)N[C@H](C(=O)N1CCC[C@H]1c1nc2ccc(-c3ccc4cc(-c5ccc6nc([C@@H]7CCCN7C(=O)[C@@H](NC(=O)OC)C7CCOCC7)[nH]c6c5)ccc4c3)cc2[nH]1)C1CCOCC1 [Example 26, Dimethyl(2,6-naphthalenediylbis(1H-benzimidazole-5,2-diyl(2S)-2,1-pyrrolidinediyl((1S)-2-oxo-1-(tetrahydro-2H-pyran-4-yl)-2,1-ethanediyl)))biscarbamate] | 0.0101 to 1 nM | 
COC(=O)N[C@H](C(=O)N1[C@@H]2C[C@@H]2C[C@H]1c1ncc(-c2ccc3nc(-c4ccc5nc([C@@H]6C[C@H]7C[C@H]7N6C(=O)[C@@H](NC(=O)OC)C(C)C)[nH]c5c4)cnc3c2)[nH]1)C(C)C [Example 52, Methyl((1S)-1-(((1R,3S,5R)-3-(4-(2-(2-((1R,3S,5R)-2-((2S)-2-((methoxycarbonyl)amino)-3-methylbutanoyl)-2-azabicyclo[3.1.0]hex-3-yl)-1H-benzimidazol-5-yl)-6-quinoxalinyl)-1H-imidazol-2-yl)-2-azabicyclo[3.1.0]hex-2-yl)carbonyl)-2-methylpropyl)carbamate] |  | 0.0059 nM
COC(=O)N[C@H](C(=O)N1CCC[C@H]1c1ncc(-c2ccc3cc(-c4cnc([C@@H]5CCCN5C(=O)[C@@H](NC(=O)OC)C(C)C)[nH]4)ccc3c2)[nH]1)C(C)C [Example 32] | 0.0101 to 1 nM | 
COC(=O)N[C@@H](C(=O)N1CCC[C@H]1c1nc2cc(-c3ccc4ccc(-c5ccc6nc([C@@H]7CCCN7C(=O)[C@H](NC(=O)OC)c7ccccc7)[nH]c6c5)cc4c3)ccc2[nH]1)c1ccccc1 [Example 12, Dimethyl(2,7-naphthalenediylbis(1H-benzimidazole-5,2-diyl(2S)-2,1-pyrrolidinediyl((1R)-2-oxo-1-phenyl-2,1-ethanediyl)))biscarbamate] | 1.01 to 1000 nM | 
CN(C)[C@@H](C(=O)N1CCC[C@H]1c1nc2ccc(-c3ccc4cc(-c5ccc6nc([C@@H]7CCCN7C(=O)[C@@H](c7ccccc7)N(C)C)[nH]c6c5)ccc4c3)cc2[nH]1)c1ccccc1 [Example 8, (1R)-2-((2S)-2-(5-(6-(2-((2S)-1-((2R)-2-(Dimethylamino)-2-phenylacetyl)-2-pyrrolidinyl)-1H-benzimidazol-6-yl)-2-naphthyl)-1H-benzimidazol-2-yl)-1-pyrrolidinyl)-N,N-dimethyl-2-oxo-1-phenylethanamine] | 0.0101 to 1 nM | 
COC(=O)N[C@H](C(=O)N1[C@@H]2C[C@@H]2C[C@H]1c1ncc(-c2ccc3nc(-c4ccc5nc([C@@H]6C[C@H]7C[C@H]7N6C(=O)[C@@H](NC(=O)OC)C6CCOCC6)[nH]c5c4)cnc3c2)[nH]1)C1CCOCC1 [Example 53, Methyl((1S)-2-((1R,3S,5R)-3-(4-(2-(2-((1R,3S,5R)-2-((2S)-2-((methoxycarbonyl)amino)-2-(tetrahydro-2H-pyran-4-yl)acetyl)-2-azabicyclo[3.1.0]hex-3-yl)-1H-benzimidazol-5-yl)-6-quinoxalinyl)-1H-imidazol-2-yl)-2-azabicyclo[3.1.0]hex-2-yl)-2-oxo-1-(tetrahydro-2H-pyran-4-yl)ethyl)carbamate] | 1.01 to 1000 nM | 1.81 nM
